Measurements reported in patent publication US10980892B2, “Methods for the treatment of leptomeningeal carcinomatosis” (Angiochem Inc., priority 2015, dated 2021).

Columns and labels:
[1] = tested on: leptomeningeal carcinomatosis (LC); assay: Treatment of LC in breast cancer subjects, CNS RECIST brain parenchymal tumor response; type: in vivo, human; conditions: 600 mg/m^2 iv tri-weekly
Procedure: Twenty-eight subjects diagnosed with LC were administered 600 mg/m^2 of ANG1005 intravenously on a tri-weekly schedule. The subjects received between one and nine cycles of ANG1005.
The results of the treatment of the subjects according to CNS Response Evaluation Criteria in Solid Tumors (RECIST) based on brain parenchymal tumor response is shown in Table 2.

[2] = tested on: leptomeningeal carcinomatosis; assay: Treatment of individual LC subjects with ANG1005 (Subjects 2, 3, 4, 8); type: in vivo, human
Text: Subject 2 presented at the time of treatment with ANG1005 with an active tumor extending from the deep portion of the surgical cavity to the right tentorial surface and along the lateral right temporal occipital dural surface. Subject 2 started treatment with ANG1005 in October 2014 and received 7 cycles (once every three weeks). Treatment was terminated due to clinical disease progression.
Subject 3 presented at the time of treatment with ANG1005 with numerous (>10) brain metastases all of which had increased in size despite prior treatment. Extensive scattered osseous metastatic disease in head/neck. After presenting with a numb chin (left trigeminal cranial nerve deficits), Subject 3 was also found to have leptomeningeal disease. Subject 3 started treatment with ANG1005 in September 2014 and received 5 cycles (once every three weeks). Treatment was terminated due to adverse event (pneumonia).
Subject 4 is a person diagnosed in October 2011 with HER2+/ER−/PgR− ductal carcinoma in situ. In November 2012, Subject 4 was diagnosed with brain metastases, and in March 2015 the brain metastases relapsed with leptomeningeal carcinomatosis. Subject 4 previously received several courses of therapy including carboplatin from October to November 2011, denosumab from November 2011 to November 2012, paclitaxel from December 2011 to March 2012, WBRT, transtuzumab from May 2012 to November 2012, and kadcyla from April 2013 to December 2014. Subject 4 presented at the time of treatment with ANG1005 with parenchymal metastases present in the cerebellum and widespread LC of the cerebellum and cerebral hemispheres. In addition, Subject 4 presented with mild ventricular enlargement with compression upon the fourth ventricle and cutflow tracts. Subject 4 started treatment with ANG1005 in March 2015 and received 8 cycles (once every three weeks). Subject withdrew from treatment due to low performance scores.
Subject 8 started treatment with ANG1005 in April 2015 and received 2 cycles (once every three weeks). Subject 8 terminated from treatment in July 2015 due to clinical progression.

[3] = tested on: leptomeningeal carcinomatosis; assay: Kaplan-Meier estimates of survival for subjects with LC; type: in vivo, human; conditions: compared to historical median overall survival of 3-6 months following aggressive treatment
Text: The Kaplan-Meier method was used to estimate the overall survival of LC subjects treated with ANG1005.

LRP receptor [4] = assay: Inhibition of brain uptake of an Angiopep conjugate by LRP ligands
Text: (§1) The methods of the invention may be especially useful in treating cancers having cells that express low density lipoprotein-related protein (LRP) receptor. The LRP receptor is expressed on the surface of cells, and is capable of binding to various substrates including aprotinin. The polypeptides described herein were designed based on the consensus kunitz-domain sequences that act as LRP receptor ligands (see, e.g., PCT Publication No. WO 2004/060403). Uptake of the conjugates including Angiopep-1 or Angiopep-2 is inhibited by LRP ligands, thus indicating involvement of LRP in this process.

LRP receptor [5] = biological target: T1, LRP receptor (Homo sapiens, UniProt Q07954); assay: Inhibition of uptake of Angiopep conjugates into cells; type: cell-based; conditions: Angiopep-2 10 or 100 μM
T1 construct: The LRP receptor is expressed on the surface of cells; endogenous in cells
T1 sequence (Q07954 20-4544): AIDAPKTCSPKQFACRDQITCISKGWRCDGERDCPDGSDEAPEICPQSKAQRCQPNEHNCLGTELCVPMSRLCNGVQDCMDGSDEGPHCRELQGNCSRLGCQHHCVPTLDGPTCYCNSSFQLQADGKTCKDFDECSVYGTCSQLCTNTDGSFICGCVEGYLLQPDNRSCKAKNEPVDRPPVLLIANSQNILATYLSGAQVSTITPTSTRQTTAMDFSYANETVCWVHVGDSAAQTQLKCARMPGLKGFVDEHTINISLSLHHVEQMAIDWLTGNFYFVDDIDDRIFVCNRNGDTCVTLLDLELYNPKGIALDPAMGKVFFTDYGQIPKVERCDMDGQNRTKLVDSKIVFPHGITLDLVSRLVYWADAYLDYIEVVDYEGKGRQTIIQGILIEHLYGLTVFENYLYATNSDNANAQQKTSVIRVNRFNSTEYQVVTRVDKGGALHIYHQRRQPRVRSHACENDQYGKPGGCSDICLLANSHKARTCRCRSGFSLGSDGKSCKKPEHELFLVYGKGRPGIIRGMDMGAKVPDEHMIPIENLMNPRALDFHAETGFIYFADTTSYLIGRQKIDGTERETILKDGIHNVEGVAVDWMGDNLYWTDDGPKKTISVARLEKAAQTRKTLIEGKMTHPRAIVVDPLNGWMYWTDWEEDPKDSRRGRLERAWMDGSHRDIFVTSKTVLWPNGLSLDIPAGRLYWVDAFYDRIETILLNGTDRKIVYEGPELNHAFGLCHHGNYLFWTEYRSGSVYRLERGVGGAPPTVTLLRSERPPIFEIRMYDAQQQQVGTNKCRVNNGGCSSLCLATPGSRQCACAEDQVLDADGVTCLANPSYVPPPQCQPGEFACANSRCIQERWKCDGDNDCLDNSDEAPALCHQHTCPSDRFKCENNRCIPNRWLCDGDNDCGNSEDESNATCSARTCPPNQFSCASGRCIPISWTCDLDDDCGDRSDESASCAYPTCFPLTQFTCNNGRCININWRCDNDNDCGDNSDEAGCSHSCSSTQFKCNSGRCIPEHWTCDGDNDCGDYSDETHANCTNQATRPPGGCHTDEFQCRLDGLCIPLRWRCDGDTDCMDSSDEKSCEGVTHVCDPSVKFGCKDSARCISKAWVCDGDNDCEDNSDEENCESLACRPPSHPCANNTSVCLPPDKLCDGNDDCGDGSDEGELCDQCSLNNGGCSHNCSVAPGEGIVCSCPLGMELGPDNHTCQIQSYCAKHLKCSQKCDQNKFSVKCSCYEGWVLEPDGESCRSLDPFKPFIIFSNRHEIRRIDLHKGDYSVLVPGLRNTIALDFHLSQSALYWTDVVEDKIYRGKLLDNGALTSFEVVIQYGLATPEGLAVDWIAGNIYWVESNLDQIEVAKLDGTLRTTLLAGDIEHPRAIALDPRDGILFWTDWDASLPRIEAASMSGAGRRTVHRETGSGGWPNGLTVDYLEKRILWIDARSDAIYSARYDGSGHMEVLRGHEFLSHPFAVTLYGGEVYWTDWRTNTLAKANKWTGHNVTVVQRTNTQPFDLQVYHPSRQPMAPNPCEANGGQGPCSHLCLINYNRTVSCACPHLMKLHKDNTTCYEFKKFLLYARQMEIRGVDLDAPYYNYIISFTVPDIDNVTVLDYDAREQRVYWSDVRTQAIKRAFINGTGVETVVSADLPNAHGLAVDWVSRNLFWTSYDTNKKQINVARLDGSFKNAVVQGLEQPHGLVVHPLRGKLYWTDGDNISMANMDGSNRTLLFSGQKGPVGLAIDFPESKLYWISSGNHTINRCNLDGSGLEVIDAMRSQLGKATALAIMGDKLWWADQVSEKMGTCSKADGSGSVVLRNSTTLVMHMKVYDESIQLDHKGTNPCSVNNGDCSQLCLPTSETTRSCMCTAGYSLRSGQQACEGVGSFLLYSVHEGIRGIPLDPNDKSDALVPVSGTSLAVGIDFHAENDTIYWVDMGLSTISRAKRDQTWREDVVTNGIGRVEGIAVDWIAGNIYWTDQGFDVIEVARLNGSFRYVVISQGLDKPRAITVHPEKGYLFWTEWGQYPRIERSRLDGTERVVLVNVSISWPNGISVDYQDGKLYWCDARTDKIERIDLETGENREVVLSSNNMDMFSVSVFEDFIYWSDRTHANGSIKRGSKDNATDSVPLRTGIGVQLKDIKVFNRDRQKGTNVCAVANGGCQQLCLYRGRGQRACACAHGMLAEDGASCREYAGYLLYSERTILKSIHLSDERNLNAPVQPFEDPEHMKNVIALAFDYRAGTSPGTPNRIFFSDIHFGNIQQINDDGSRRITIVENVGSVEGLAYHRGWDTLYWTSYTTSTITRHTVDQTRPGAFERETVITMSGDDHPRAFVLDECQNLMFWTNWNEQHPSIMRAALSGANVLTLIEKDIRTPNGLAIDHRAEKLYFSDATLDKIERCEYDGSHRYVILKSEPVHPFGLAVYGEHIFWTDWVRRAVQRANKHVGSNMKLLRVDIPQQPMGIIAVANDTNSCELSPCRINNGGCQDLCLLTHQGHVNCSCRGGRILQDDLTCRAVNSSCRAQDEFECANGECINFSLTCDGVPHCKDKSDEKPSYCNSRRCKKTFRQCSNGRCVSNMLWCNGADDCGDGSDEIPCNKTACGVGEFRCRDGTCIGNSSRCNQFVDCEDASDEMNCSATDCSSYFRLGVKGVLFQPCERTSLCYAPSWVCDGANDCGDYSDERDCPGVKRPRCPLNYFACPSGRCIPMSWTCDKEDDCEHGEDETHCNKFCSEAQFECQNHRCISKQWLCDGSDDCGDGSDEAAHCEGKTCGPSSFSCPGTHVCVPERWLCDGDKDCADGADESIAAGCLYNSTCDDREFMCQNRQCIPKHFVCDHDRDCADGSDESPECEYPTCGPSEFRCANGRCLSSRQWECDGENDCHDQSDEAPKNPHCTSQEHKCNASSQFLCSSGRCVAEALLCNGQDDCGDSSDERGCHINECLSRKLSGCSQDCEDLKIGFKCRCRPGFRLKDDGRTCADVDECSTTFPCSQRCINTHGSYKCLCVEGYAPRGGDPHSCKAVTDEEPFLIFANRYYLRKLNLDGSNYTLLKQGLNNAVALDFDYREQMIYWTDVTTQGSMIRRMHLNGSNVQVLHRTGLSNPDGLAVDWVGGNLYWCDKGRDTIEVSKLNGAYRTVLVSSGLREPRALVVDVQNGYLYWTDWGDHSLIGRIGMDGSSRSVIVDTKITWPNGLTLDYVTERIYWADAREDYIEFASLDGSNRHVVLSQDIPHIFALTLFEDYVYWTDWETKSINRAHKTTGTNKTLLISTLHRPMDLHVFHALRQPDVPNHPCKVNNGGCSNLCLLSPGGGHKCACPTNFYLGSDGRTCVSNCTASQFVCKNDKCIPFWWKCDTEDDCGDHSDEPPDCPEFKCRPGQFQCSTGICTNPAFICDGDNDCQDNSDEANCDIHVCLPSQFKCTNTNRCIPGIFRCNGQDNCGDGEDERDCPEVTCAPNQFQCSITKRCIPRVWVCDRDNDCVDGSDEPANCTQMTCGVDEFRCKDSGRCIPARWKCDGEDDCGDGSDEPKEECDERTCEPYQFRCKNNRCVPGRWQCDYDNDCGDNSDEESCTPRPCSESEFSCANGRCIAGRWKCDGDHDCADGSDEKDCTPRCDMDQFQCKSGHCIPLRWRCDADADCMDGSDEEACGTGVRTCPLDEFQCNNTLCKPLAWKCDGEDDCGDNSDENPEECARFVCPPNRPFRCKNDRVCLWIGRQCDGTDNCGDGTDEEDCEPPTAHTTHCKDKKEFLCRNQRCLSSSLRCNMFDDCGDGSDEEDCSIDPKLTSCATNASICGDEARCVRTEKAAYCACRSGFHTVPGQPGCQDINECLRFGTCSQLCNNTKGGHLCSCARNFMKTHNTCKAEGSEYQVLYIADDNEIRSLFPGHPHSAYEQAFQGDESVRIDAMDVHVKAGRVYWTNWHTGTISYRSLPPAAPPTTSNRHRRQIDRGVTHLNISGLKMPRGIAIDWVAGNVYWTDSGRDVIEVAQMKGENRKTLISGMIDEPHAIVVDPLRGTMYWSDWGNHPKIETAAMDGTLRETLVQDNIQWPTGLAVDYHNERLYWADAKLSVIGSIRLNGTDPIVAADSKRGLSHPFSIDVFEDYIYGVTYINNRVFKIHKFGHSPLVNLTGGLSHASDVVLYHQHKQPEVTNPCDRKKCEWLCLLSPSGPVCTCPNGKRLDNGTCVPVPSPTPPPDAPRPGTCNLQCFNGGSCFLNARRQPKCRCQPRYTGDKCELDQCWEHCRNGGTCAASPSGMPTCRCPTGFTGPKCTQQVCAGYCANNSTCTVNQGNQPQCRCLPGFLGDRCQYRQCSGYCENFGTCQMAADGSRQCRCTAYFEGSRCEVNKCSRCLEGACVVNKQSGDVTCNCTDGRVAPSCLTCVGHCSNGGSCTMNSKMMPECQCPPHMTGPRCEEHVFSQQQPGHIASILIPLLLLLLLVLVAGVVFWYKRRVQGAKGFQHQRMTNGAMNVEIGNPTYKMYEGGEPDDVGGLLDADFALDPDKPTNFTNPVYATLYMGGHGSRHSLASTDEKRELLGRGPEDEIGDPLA
Text: as §1

Compound: CC(=O)O[C@H]1C(=O)[C@@]2(C)[C@H]([C@H](OC(=O)c3ccccc3)[C@]3(O)C[C@H](OC(=O)C(OC(=O)CCC(=O)NCCCC[C@H](NN[C@@H](Cc4ccccc4)C(=O)C(=O)C(CC(N)=O)NC(=O)[C@H](CC(N)=O)NC(=O)[C@H](CCCNC(=N)N)NC(=O)[C@H](CCCCNC(=O)CCC(=O)O[C@@H](C(=O)O[C@H]4C[C@@]5(O)[C@@H](OC(=O)c6ccccc6)[C@@H]6[C@]7(OC(C)=O)CO[C@@H]7C[C@H](O)[C@@]6(C)C(=O)[C@H](OC(C)=O)C(=C4C)C5(C)C)[C@@H](NC(=O)c4ccccc4)c4ccccc4)NNCC(=O)C(=O)[C@H](CCCNC(=N)N)NC(=O)[C@H](CO)NC(=O)CNC(=O)CNC(=O)C(Cc4ccc(O)cc4)NC(=O)[C@H](Cc4ccccc4)NC(=O)C(Cc4ccccc4)NCC(=O)[C@H](NC(=O)CCC(=O)O[C@@H](C(=O)O[C@H]4C[C@@]5(O)[C@@H](OC(=O)c6ccccc6)[C@@H]6[C@]7(OC(C)=O)CO[C@@H]7C[C@H](O)[C@@]6(C)C(=O)[C@H](OC(C)=O)C(=C4C)C5(C)C)[C@@H](NC(=O)c4ccccc4)c4ccccc4)C(C)O)C(=O)N[C@H](C(=O)NC(CCC(=O)O)C(=O)N[C@@H](CCC(=O)O)C(=O)NC(C=O)Cc4ccc(O)cc4)[C@@H](C)O)[C@@H](NC(=O)c4ccccc4)c4ccccc4)C(C)=C1C3(C)C)[C@]1(OC(C)=O)CO[C@@H]1C[C@@H]2O (stereo partly shown) [ANG1005]
- Partial Response (PR), number of patients ([1]; All Patients (n = 23)): 5
- Partial Response (PR), percent of patients ([1]; All Patients (n = 23)): (22%)
- Patient Benefit (PR + SD), number of patients ([1]; All Patients (n = 23)): 17
- Progressive Disease, number of patients ([1]; All Patients (n = 23)): 6
- Progressive Disease, percent of patients ([1]; All Patients (n = 23)): (26%)
- Stable Disease (SD), number of patients ([1]; All Patients (n = 23)): 12
- Stable Disease (SD), percent of patients ([1]; All Patients (n = 23)): (52%)
- Partial Response (PR), number of patients ([1]; HER2+ (n = 15)): 4
- Partial Response (PR), percent of patients ([1]; HER2+ (n = 15)): (27%)
- Patient Benefit (PR + SD), number of patients ([1]; HER2+ (n = 15)): 12
- Progressive Disease, number of patients ([1]; HER2+ (n = 15)): 3
- Progressive Disease, percent of patients ([1]; HER2+ (n = 15)): (20%)
- Stable Disease (SD), number of patients ([1]; HER2+ (n = 15)): 8
- Stable Disease (SD), percent of patients ([1]; HER2+ (n = 15)): (53%)
- Partial Response (PR), number of patients ([1]; HER2− (n = 8)): 1
- Partial Response (PR), percent of patients ([1]; HER2− (n = 8)): (12.5%)
- Patient Benefit (PR + SD), number of patients ([1]; HER2− (n = 8)): 5
- Patient Benefit (PR + SD), percent of patients ([1]; HER2− (n = 8)): (62.5%)
- Progressive Disease, number of patients ([1]; HER2− (n = 8)): 3
- Progressive Disease, percent of patients ([1]; HER2− (n = 8)): (37.5%)
- Stable Disease (SD), number of patients ([1]; HER2− (n = 8)): 4
- Stable Disease (SD), percent of patients ([1]; HER2− (n = 8)): (50%)
- Response of leptomeningeal carcinomatosis ([2]; Subject 2, HER2+/ER−/PgR+, 7 cycles once every three weeks, dural lesion no longer apparent, leptomeningeal nodule decreasing in size): responded
- Response of leptomeningeal carcinomatosis ([2]; Subject 3, HER2+/ER−/PgR−, 5 cycles once every three weeks): improved both radiographically and clinically
- Adverse event causing treatment termination ([2]; Subject 3, after 5 cycles once every three weeks): pneumonia
- Response of leptomeningeal carcinomatosis ([2]; Subject 4, HER2+/ER−/PgR−, 8 cycles once every three weeks, diminished nodular leptomeningeal enhancement, decreased leptomeningeal tumor burden): responded
- Response of leptomeningeal carcinomatosis ([2]; Subject 8, HER2+/ER+/PgR−, 2 cycles once every three weeks, improvement in extensive LC in the cerebellum): responded
- Median overall survival (Kaplan-Meier estimate) [3]: increase median overall survival

Compound: RAP: LRP ligand
- Effect on brain uptake of an Angiopep conjugate (LRP receptor [4]; RAP 200 nM): capable of reducing brain uptake

Compound: TFFYGGSRGKRNNFKTEEY [Angiopep-2]
- Effect on uptake of the conjugates into cells (LRP receptor [5]): able to reduce uptake

Compound: aprotinin
- Effect on brain uptake of an Angiopep conjugate (LRP receptor [4]; aprotinin 10 μM): capable of reducing brain uptake
